According to US11161830B2, “4-pyridone compound or salt thereof, and pharmaceutical composition and formulation including same” (priority 2017, dated 2021):
Several values for one entry are separate records, joined by “and”; a condition that tells them apart may be missing. Equal values may be shown once.

Tested on: HBV genotype C
Assay: Test Example 3-2: in vivo efficacy study in PXB mouse (chimeric mouse with human hepatocytes), first and second study
Parameters: species or system hepatitis B virus
Conditions: second study, orally 3 mg/kg twice a day for 14 days from day 35, individual mice, 3 mg/kg
Procedure: An in vivo efficacy study with a PXB mouse (a chimeric mouse with human hepatocytes) was carried out in PhenixBio Co., Ltd. 19-Week-or-more-old male mice having body weights of 10.5 g or more after the elapse of 13 weeks or more from the infection with HBV genotype C were allocated into the respective groups and used. The studies were carried out twice, and a 21-day administration withdrawal period was provided between the first study and the second study.
The first administration day in the first study was taken as day 0, and the compound of Example 6-5 was orally administered at 1 mg/kg, 3 mg/kg, 10 mg/kg, and 30 mg/kg twice a day, or 0.5% methylcellulose (vehicle) was orally administered once a day for 14 days. Before administration on day 0, day 3, Day 7, and day 10, and on day 14, the blood was collected from the orbital venous plexus under anesthesia with isoflurane.
The first administration day in the second study was taken as day 35, and the compounds of Examples 19-2 and 20-2 were each orally administered at 3 mg/kg twice a day, or 0.5% methylcellulose (vehicle) was orally administered once a day for 14 days. Before administration on day 35, day 38, day 42, and day 45, the blood was collected from the orbital venous plexus under anesthesia with isoflurane. On day 49, the blood was collected from the heart under anesthesia with isoflurane.
The serum was separated from the collected blood and purified with a QIAamp (registered trademark) DNA Blood Mini Kit (manufactured by QIAGEN). The amount of HBV-DNA in the obtained solution was absolutely quantified by a real-time PCR method. In addition, the amount of HBsAg in the serum was absolutely quantified by chemiluminescent enzyme immunoassay using Lumipulse (registered trademark) HBsAg-HQ (manufactured by Fujirebio Inc.).

`COCCO[C@@H]1CCN(c2ccc(-c3cc(=O)c(C(=O)O)cn3-c3ccc4nc(N5CCC[C@@H]5COC)sc4c3)cc2)C1` [Example 19-2, 6-(4-((R)-3-(2-methoxyethoxy)pyrrolidin-1-yl)phenyl)-1-(2-((R)-2-(methoxymethyl)pyrrolidin-1-yl)benzo[d]thiazol-6-yl)-4-oxo-1,4-dihydropyridine-3-carboxylic acid] was tested, and the HBV-DNA in blood (Day 35 (before administration)) was 6.1E+08 copies/mL and 3.7E+08 copies/mL, the HBsAg in serum (Day 35 (before administration)) was 1,872 IU/mL and 2,473 IU/mL and the HBV-DNA in blood (Day 38) was 2.1E+08 copies/mL and 6.2E+08 copies/mL. For the same molecule, the HBsAg in serum (Day 38) was 968 IU/mL and 2,558 IU/mL, the HBV-DNA in blood (Day 42) was 3.3E+08 copies/mL and 2.5E+08 copies/mL and the HBsAg in serum (Day 42) was 992 IU/mL and 1,238 IU/mL. The HBV-DNA in blood (Day 45) was 4.2E+08 copies/mL and 3.0E+08 copies/mL, the HBsAg in serum (Day 45) was 1,548 IU/mL and 1,644 IU/mL and the HBV-DNA in blood (Day 49) was 1.4E+08 copies/mL and 1.8E+08 copies/mL. For the same molecule, the HBsAg in serum (Day 49) was 1,509 IU/mL and 1,348 IU/mL.
